Results taken from patent US8877748B2, “Heterocyclic fused anthraquinone derivatives, manufacturing method and pharmaceutical composition using thereof” (National Defense Medical Center, priority 2012, dated 2014).

How the values were obtained:
NCI-H522 = assay: NCI one-dose screening, non-small cell lung cancer NCI-H522; format: cell-based, human; details: 10 μM
NCI-H23 = assay: NCI one-dose screening, non-small cell lung cancer NCI-H23; format: cell-based, human; details: 10 μM
UACC-62 = assay: NCI one-dose screening, melanoma UACC-62; format: cell-based, human; details: 10 μM
RXF, 393 = assay: NCI one-dose screening, renal cancer RXF, 393; format: cell-based, human; details: 10 μM
SF-295 = assay: NCI one-dose screening, CNS cancer SF-295; format: cell-based, human; details: 10 μM
HOP-92 = assay: NCI one-dose screening, non-small cell lung cancer HOP-92; format: cell-based, human; details: 10 μM
T-47D = assay: NCI one-dose screening, breast cancer T-47D; format: cell-based, human; details: 10 μM
SK-OV-3 = assay: NCI one-dose screening, ovarian cancer SK-OV-3; format: cell-based, human; details: 10 μM
SF-539 = assay: NCI one-dose screening, CNS cancer SF-539; format: cell-based, human; details: 10 μM
HL-60, TB = assay: NCI one-dose screening, leukemia HL-60, TB; format: cell-based, human; details: 10 μM
NCl/ADR-RES = assay: NCI one-dose screening, breast cancer NCl/ADR-RES; format: cell-based, human; details: 10 μM; listed under Ovarian cancer
K562cell line = assay: NCI one-dose screening, leukemia K562; format: cell-based, human; details: 10 μM
DU145 = assay: NCI one-dose screening, prostate cancer DU145; format: cell-based, human; details: 10 μM
COLO 205 = assay: NCI one-dose screening, colon cancer COLO 205; format: cell-based, human; details: 10 μM
MALME-3M = assay: NCI one-dose screening, melanoma MALME-3M; format: cell-based, human; details: 10 μM
human tumor cell lines = assay: NCI one-dose screening, Mean / Delta / Range of growth percent over all tested cell lines; format: cell-based; details: 10 μM
PC-3 = assay: NCI one-dose screening, prostate cancer PC-3; format: cell-based, human; details: 10 μM
ACHN = assay: NCI one-dose screening, renal cancer ACHN; format: cell-based, human; details: 10 μM
IGROV1 = assay: NCI one-dose screening, ovarian cancer IGROV1; format: cell-based, human; details: 10 μM
[1] = tested on: PC-3 prostate cancer cell line; assay: SRB assay cell viability, PC-3 prostate cancer cell line; format: cell-based, human; details: PC-3 prostate cancer cell line, Table II prints no unit, μM printed, read-out: SRB assay: 50% inhibition of cancer cell proliferation of sample concentration (IC50) of PC-3 prostate cancer cell line
TK-10 = assay: NCI one-dose screening, renal cancer TK-10; format: cell-based, human; details: 10 μM
CAKI-1 = assay: NCI one-dose screening, renal cancer CAKI-1; format: cell-based, human; details: 10 μM
MDA, -MB-435 = assay: NCI one-dose screening, breast cancer MDA, -MB-435; format: cell-based, human; details: 10 μM; listed under Melanoma
OVCAR-8 = assay: NCI one-dose screening, ovarian cancer OVCAR-8; format: cell-based, human; details: 10 μM
[2] = NCI one-dose screening, renal cancer A489; format: cell-based, human; details: 10 μM
SK-MEL-28 = assay: NCI one-dose screening, melanoma SK-MEL-28; format: cell-based, human; details: 10 μM
SNB-19 = assay: NCI one-dose screening, CNS cancer SNB-19; format: cell-based, human; details: 10 μM
OVCAR-3 = assay: NCI one-dose screening, ovarian cancer OVCAR-3; format: cell-based, human; details: 10 μM
U251 = assay: NCI one-dose screening, CNS cancer U251; format: cell-based, human; details: 10 μM
PRMI-8226 cell line = assay: NCI one-dose screening, leukemia PRMI-8226; format: cell-based, human; details: 10 μM
M14 = assay: NCI one-dose screening, melanoma M14; format: cell-based, human; details: 10 μM
HCT-15 = assay: NCI one-dose screening, colon cancer HCT-15; format: cell-based, human; details: 10 μM
UO-31 = assay: NCI one-dose screening, renal cancer UO-31; format: cell-based, human; details: 10 μM
BT-549 = assay: NCI one-dose screening, breast cancer BT-549; format: cell-based, human; details: 10 μM
SK-MEL-2 = assay: NCI one-dose screening, melanoma SK-MEL-2; format: cell-based, human; details: 10 μM
HCT-116 = assay: NCI one-dose screening, colon cancer HCT-116; format: cell-based, human; details: 10 μM
MOLT-4 = assay: NCI one-dose screening, leukemia MOLT-4; format: cell-based, human; details: 10 μM
SK-MEL-5 = assay: NCI one-dose screening, melanoma SK-MEL-5; format: cell-based, human; details: 10 μM
KM12 = assay: NCI one-dose screening, colon cancer KM12; format: cell-based, human; details: 10 μM
HS 578-T = assay: NCI one-dose screening, breast cancer HS 578-T; format: cell-based, human; details: 10 μM; Breast cancer
NCI-H226 = assay: NCI one-dose screening, non-small cell lung cancer NCI-H226; format: cell-based, human; details: 10 μM
HT29 = assay: NCI one-dose screening, colon cancer HT29; format: cell-based, human; details: 10 μM
SNB-75 = assay: NCI one-dose screening, CNS cancer SNB-75; format: cell-based, human; details: 10 μM
SR = assay: NCI one-dose screening, leukemia SR; format: cell-based, human; details: 10 μM
MDA-MB-231/ATCC = assay: NCI one-dose screening, breast cancer MDA-MB-231/ATCC; format: cell-based, human; details: 10 μM
A549/ATCC = assay: NCI one-dose screening, non-small cell lung cancer A549/ATCC; format: cell-based, human; details: 10 μM
NCI-H460 = assay: NCI one-dose screening, non-small cell lung cancer NCI-H460; format: cell-based, human; details: 10 μM
HOP-62 = assay: NCI one-dose screening, non-small cell lung cancer HOP-62; format: cell-based, human; details: 10 μM
786-O = assay: NCI one-dose screening, renal cancer 786-O; format: cell-based, human; details: 10 μM
SF-268 = assay: NCI one-dose screening, CNS cancer SF-268; format: cell-based, human; details: 10 μM
HCC-2998 = assay: NCI one-dose screening, colon cancer HCC-2998; format: cell-based, human; details: 10 μM
MDA-MB-468 = assay: NCI one-dose screening, breast cancer MDA-MB-468; format: cell-based, human; details: 10 μM
MCF7 = assay: NCI one-dose screening, breast cancer MCF7; format: cell-based, human; details: 10 μM
SN12C = assay: NCI one-dose screening, renal cancer SN12C; format: cell-based, human; details: 10 μM
UACC-257 = assay: NCI one-dose screening, melanoma UACC-257; format: cell-based, human; details: 10 μM
OVCAR-5 = assay: NCI one-dose screening, ovarian cancer OVCAR-5; format: cell-based, human; details: 10 μM
EKVX = assay: NCI one-dose screening, non-small cell lung cancer EKVX; format: cell-based, human; details: 10 μM
LOX IMVI = assay: NCI one-dose screening, melanoma LOX IMVI; format: cell-based, human; details: 10 μM

Substance: 4-(2,5-dichloro-phenyl thio)anthra[2,1-c] [1,2,5]thiadiazol oxazole-6,11-dione [C35]
- Growth Percent NCI-H522 (NCI-H522): 91.29%
- Growth Percent NCI-H23 (NCI-H23): 74.59%
- Growth Percent UACC-62 (UACC-62): 94.09%
- Growth Percent RXF 393 (RXF, 393): 91.47%
- Growth Percent SF-295 (SF-295): 78.93%
- Growth Percent HOP-92 (HOP-92): 65.12%
- Growth Percent T-47D (T-47D): 63.44%
- Growth Percent SK-OV-3 (SK-OV-3): 84.09%
- Growth Percent SF-539 (SF-539): 88.74%
- Growth Percent HL-60(TB) (HL-60, TB): 72.72%
- Growth Percent NCI/ADR-RES (NCl/ADR-RES): 83.13%
- Growth Percent K562 (K562cell line): 47.80%
- Growth Percent DU145 (DU145): 102.44%
- Growth Percent COLO 205 (COLO 205): 109.65%
- Growth Percent MALME-3M (MALME-3M): 94.30%
- Growth Percent Delta (human tumor cell lines; delta over all cell lines): 85.86%
- Growth Percent Mean (human tumor cell lines; mean over all cell lines): 87.13%
- Growth Percent Range (human tumor cell lines; range over all cell lines): 121.42%
- Growth Percent PC-3 (PC-3): 80.59%
- Growth Percent ACHN (ACHN): 88.50%
- Growth Percent IGROV1 (IGROV1): 78.13%
- IC50 [1]: > 15 µM
- Growth Percent TK-10 (TK-10): 111.76%
- Growth Percent CAKI-1 (CAKI-1): 108.19%
- Growth Percent MDA-MB-435 (MDA, -MB-435): 105.64%
- Growth Percent OVCAR-8 (OVCAR-8): 85.13%
- Growth Percent A498 [2]: 87.70%
- Growth Percent SK-MEL-28 (SK-MEL-28): 122.69%
- Growth Percent SNB-19 (SNB-19): 84.39%
- Growth Percent OVCAR-3 (OVCAR-3): 99.41%
- Growth Percent U251 (U251): 63.57%
- Growth Percent RPMI-8226 (PRMI-8226 cell line): 77.16%
- Growth Percent M14 (M14): 98.95%
- Growth Percent HCT-15 (HCT-15): 92.85%
- Growth Percent UO-31 (UO-31): 91.54%
- Growth Percent BT-549 (BT-549): 79.66%
- Growth Percent SK-MEL-2 (SK-MEL-2): 101.38%
- Growth Percent HCT-116 (HCT-116): 81.94%
- Growth Percent MOLT-4 (MOLT-4): 1.27%
- Growth Percent SK-MEL-5 (SK-MEL-5): 108.82%
- Growth Percent KM12 (KM12): 101.18%
- Growth Percent HS 578T (HS 578-T): 72.51%
- Growth Percent NCI-H226 (NCI-H226): 112.00%
- Growth Percent HT29 (HT29): 106.27%
- Growth Percent SNB-75 (SNB-75): 47.00%
- Growth Percent SR (SR): 41.15%
- Growth Percent MDA-MB-231/ATCC (MDA-MB-231/ATCC): 82.44%
- Growth Percent A549/ATCC (A549/ATCC): 102.75%
- Growth Percent NCI-H460 (NCI-H460): 100.98%
- Growth Percent HOP-62 (HOP-62): 63.18%
- Growth Percent 786-0 (786-O): 67.49%
- Growth Percent SF-268 (SF-268): 82.95%
- Growth Percent HCC-2998 (HCC-2998): 109.37%
- Growth Percent MDA-MB-468 (MDA-MB-468): 90.73%
- Growth Percent MCF7 (MCF7): 85.16%
- Growth Percent SN12C (SN12C): 96.65%
- Growth Percent UACC-257 (UACC-257): 119.38%
- Growth Percent OVCAR-5 (OVCAR-5): 108.82%
- Growth Percent EKVX (EKVX): 109.03%
- Growth Percent LOX IMVI (LOX IMVI): 73.05%
